In experiment [1] the target is Human CB1R (Cannabanoid receptor 1) (Homo sapiens (Human), UniProt P21554). The experiment is described as follows: CB-1 in vitro cAMP assay (HTRF). In kind it is cell-based. The conditions noted are these: mean where tested more than once. Put shortly:
(§1)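 HEK-293 cells stably transfected with the human receptor, plated overnight at 4E5 cells/mL. Compounds given as 1/3 serial dilutions from 10 mM DMSO stocks. Stimulation in HBSS/5 mM HEPES/0.1% BSA with 0.5 mM IBMX and forskolin (1.5 μM in buffer); cAMP measured by competitive HTRF immunoassay (d2-cAMP, cryptate anti-cAMP) against a cAMP standard curve.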
(Changes in cAMP serve as a functional read-out for many G protein-coupled receptors.)

Experiment [2] concerns the target Human CB2R (Cannabanoid receptor 2) (Homo sapiens (Human), UniProt P34972). The experiment is described as follows: CB-2 in vitro cAMP assay (HTRF). Type of experiment: cell-based. Conditions: mean where tested more than once. The method in brief: as §1

The structures appear in SMILES notation.

Chain of Human CB2R (Cannabanoid receptor 2) (P34972 whole entry): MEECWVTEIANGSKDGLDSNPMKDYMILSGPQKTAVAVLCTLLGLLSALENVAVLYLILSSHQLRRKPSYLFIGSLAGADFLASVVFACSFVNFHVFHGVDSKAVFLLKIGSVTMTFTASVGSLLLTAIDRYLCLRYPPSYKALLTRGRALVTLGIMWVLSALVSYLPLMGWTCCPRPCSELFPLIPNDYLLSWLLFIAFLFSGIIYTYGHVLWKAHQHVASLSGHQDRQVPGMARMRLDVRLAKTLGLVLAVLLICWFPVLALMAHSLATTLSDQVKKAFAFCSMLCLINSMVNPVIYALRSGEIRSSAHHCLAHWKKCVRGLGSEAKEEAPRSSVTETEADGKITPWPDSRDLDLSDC
Chain of Human CB1R (Cannabanoid receptor 1) (P21554 whole entry): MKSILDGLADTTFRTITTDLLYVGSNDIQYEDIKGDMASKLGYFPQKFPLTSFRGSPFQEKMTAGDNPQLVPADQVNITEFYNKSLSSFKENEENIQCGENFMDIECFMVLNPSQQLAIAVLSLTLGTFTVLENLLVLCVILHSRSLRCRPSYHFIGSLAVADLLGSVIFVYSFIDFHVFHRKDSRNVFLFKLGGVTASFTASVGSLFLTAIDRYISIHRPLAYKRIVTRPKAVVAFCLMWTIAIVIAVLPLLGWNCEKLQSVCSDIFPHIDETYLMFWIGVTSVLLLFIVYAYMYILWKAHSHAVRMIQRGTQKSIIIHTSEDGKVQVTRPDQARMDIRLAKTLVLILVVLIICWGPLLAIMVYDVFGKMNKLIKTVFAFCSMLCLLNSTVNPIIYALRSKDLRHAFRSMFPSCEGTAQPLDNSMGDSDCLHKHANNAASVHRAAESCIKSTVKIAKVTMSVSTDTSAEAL

Broadly, the EC50 is the concentration at which the effect is half-maximal. `O=C(NCCCOc1ccc(CCl)cc1)c1ccc(S(=O)(=O)N2CCC(Nc3ncnc4ccc(C(c5ccc(Cl)cc5)c5ccc(Cl)cc5)cc34)CC2)cc1` [Compound #30, 4-((4-((6-(bis(4-chlorophenyl)methyl)quinazolin-4-yl)amino)piperidin-1-yl)sulfonyl)-N-(3-(4-(chloromethyl)phenoxy)propyl)benzamide]: the EC50 in experiment [1] is 446 nM; in experiment [2], > 10000 nM.
For the molecule `NC(=O)CC(=O)N1CCC(Nc2ncnc3ccc(C(c4ccc(Cl)cc4)c4ccc(Cl)cc4)cc23)CC1` [compound 87, 3-(4-(6-(bis(4-chlorophenyl)methyl)quinazolin-4-ylamino)piperidin-1-yl)-3-oxopropanamide], the EC50 in experiment [1] was 2920 nM; in experiment [2] it was > 10000 nM.
Taken in the same sequence, the figures for `NC(=O)CCC(=O)N1CCC(Nc2ncnc3ccc(C(c4ccc(Cl)cc4)c4ccc(Cl)cc4)cc23)CC1` [Compound #86, 4-(4-((6-(bis(4-chlorophenyl)methyl)quinazolin-4-yl)amino)piperidin-1-yl)-4-oxobutanamide] were 2460 nM and 9000 nM.
For `O=C(NC(CO)(CO)CO)c1ccc(S(=O)(=O)N2CCC(Nc3ncnc4ccc(C(c5ccc(Cl)cc5)c5ccc(Cl)cc5)cc34)CC2)cc1` [Compound #41, 4-((4-((6-(Bis(4-chlorophenyl)methyl)quinazolin-4-yl)amino)piperidin-1-yl)sulfonyl)-N-(1,3-dihydroxy-2-(hydroxymethyl)propan-2-yl)benzamide] the same measures were 8 nM and 1470 nM.
For `O=C(O)c1cccc(S(=O)(=O)N2CCC(Nc3ncnc4ccc(C(c5ccc(Cl)cc5)c5ccc(Cl)cc5)cc34)CC2)c1` [compound 101, 3-(4-(6-(bis(4-chlorophenyl)methyl)quinazolin-4-ylamino)piperidin-1-ylsulfonyl)benzoic acid] the same measures were 106 nM and 3880 nM.
As for `CS(=O)(=O)NCCOc1nc(NC2CCN(S(=O)(=O)c3ccc(C(=O)O)cc3)CC2)c2cc(C(c3ccc(Cl)cc3)c3ccc(Cl)cc3)ccc2n1` [Compound #33, 4-((4-((6-(bis(4-chlorophenyl)methyl)-2-(2-(methylsulfonamido)ethoxy)quinazolin-4-yl)amino)piperidin-1-yl)sulfonyl)benzoic acid], the EC50 in experiment [1] was determined as 227 nM; in experiment [2], 917 nM.
In the case of `NCCCCOc1nc(NCc2cccc(C(F)(F)F)c2)c2cc(C(c3ccc(Cl)cc3)c3ccc(Cl)cc3)ccc2n1` [Compound #31, 2-(4-aminobutoxy)-6-(bis(4-chlorophenyl)methyl)-N-(3-(trifluoromethyl)benzyl)quinazolin-4-amine], the results for the EC50 in experiment [1] and in experiment [2] were 77 nM and 4120 nM, respectively.
Consider `Nc1nc(NC2CCN(S(=O)(=O)C(F)(F)F)CC2)c2cc(C(c3ccc(Cl)cc3)c3ccc(Cl)cc3)ccc2n1` [Compound #107, 6-(bis(4-chlorophenyl)methyl)-N4-(1-((trifluoromethyl)sulfonyl)piperidin-4-yl)quinazoline-2,4-diamine], for which the EC50 in experiment [1] is 75 nM; in experiment [2], > 10000 nM.
For the molecule `Oc1ccc(CN2CCC(Nc3ncnc4ccc(C(c5ccc(Cl)cc5)c5ccc(Cl)cc5)cc34)CC2)cc1` [compound 27, 4-((4-(6-(bis(4-chlorophenyl)methyl)quinazolin-4-ylamino)piperidin-1-yl)methyl)phenol], the half-maximal effective concentration (EC50) was 120 nM in experiment [1] and > 10000 nM in experiment [2].
For `O=C(O)c1ccc(S(=O)(=O)N2CCC(Nc3nc(OCCO)nc4ccc(C(c5ccc(Cl)cc5)c5ccc(Cl)cc5)cc34)CC2)cc1` [Compound #39, 4-((4-((6-(bis(4-chlorophenyl)methyl)-2-(2-hydroxyethoxy)quinazolin-4-yl)amino)piperidin-1-yl)sulfonyl)benzoic acid] the same measures were 41 nM and 514 nM.
Taken in the same sequence, the figures for `NC(=O)Cc1ccc(N2CCC(Nc3ncnc4ccc(C(c5ccc(Cl)cc5)c5ccc(Cl)cc5)cc34)CC2)cc1` [Compound #74, 2-(4-(4-((6-(bis(4-chlorophenyl)methyl)quinazolin-4-yl)amino)piperidin-1-yl)phenyl)acetamide] were 82 nM and 178 nM.
Taken in the same sequence, the figures for `O=C1CC(Nc2ncnc3ccc(C(c4ccc(Cl)cc4)c4ccc(Cl)cc4)cc23)CCN1c1ccccc1` (stereo not drawn) [Compound #102, 4-((6-(bis(4-chlorophenyl)methyl)quinazolin-4-yl)amino)-1-phenylpiperidin-2-one] were 10 nM and > 10000 nM.
`O=S(=O)(N1CCC(Nc2ncnc3ccc(C(c4ccc(Cl)cc4)c4ccc(Br)cc4)cc23)CC1)C(F)(F)F` (stereo not drawn) [Compound #20, 6-((4-bromophenyl)(4-chlorophenyl)methyl)-N-(1-((trifluoromethyl)sulfonyl)piperidin-4-yl)quinazolin-4-amine]: the EC50 in experiment [1] came to 17 nM; in experiment [2] it was 218 nM.
Taken in the same sequence, the figures for `O=C(c1ccc(S(=O)(=O)NCCO)cc1)N1CCC(Nc2ncnc3ccc(C(c4ccc(Cl)cc4)c4ccc(Cl)cc4)cc23)CC1` [Compound #45, 4-(4-((6-(bis(4-chlorophenyl)methyl)quinazolin-4-yl)amino)piperidine-1-carbonyl)-N-(2-hydroxyethyl)benzenesulfonamide] were 222 nM and 1200 nM.
Taken in the same sequence, the figures for `O=C(O)c1ccc(CN2CCC(Nc3ncnc4ccc(C(c5ccc(Cl)cc5)c5ccc(Cl)cc5)cc34)CC2)cc1` [compound 44, 4-((4-(6-(bis(4-chlorophenyl)methyl)quinazolin-4-ylamino)piperidin-1-yl)methyl)benzoic acid] were 580 nM and > 10000 nM.
As to `NC(=O)CCCOc1nc(NCc2ccc(C(F)(F)F)cc2)c2cc(C(c3ccc(Cl)cc3)c3ccc(Cl)cc3)ccc2n1` [Compound #66, 4-((6-(bis(4-chlorophenyl)methyl)-4-((4-(trifluoromethyl)benzyl)amino)quinazolin-2-yl)oxy)butanamide], the EC50 was found to be 8 nM in experiment [1] and 845 nM in experiment [2].
Taken in the same sequence, the figures for `O=C(O)c1ccc(CN2CCC(Nc3ncnc4ccc(C(c5ccc(Cl)cc5)c5ccc(Cl)cc5)cc34)C2)cc1` (stereo not drawn) [Compound #14, 4-((3-((6-(bis(4-chlorophenyl)methyl)quinazolin-4-yl)amino)pyrrolidin-1-yl)methyl)benzoic acid] were 1120 nM and 8700 nM.
For `COC(=O)c1ccc(CNc2ncnc3ccc(C(c4ccc(Cl)cc4)c4ccc(Cl)cc4)cc23)cc1` [compound 61, methyl 4-((6-(bis(4-chlorophenyl)methyl)quinazolin-4-ylamino)methyl)benzoate] the same measures were 20 nM and > 10000 nM.
For `O=S(=O)(CCO)N1CCC(Nc2ncnc3ccc(C(c4ccc(Cl)cc4)c4ccc(Cl)cc4)cc23)CC1` [Compound #78, 2-((4-((6-(bis(4-chlorophenyl)methyl)quinazolin-4-yl)amino)piperidin-1-yl)sulfonyl)ethanol] the same measures were 16 nM and 9400 nM.
Regarding `NC(=O)c1ccc(CN2CCC(Nc3ncnc4ccc(C(c5ccc(Cl)cc5)c5ccc(Cl)cc5)cc34)CC2)cc1` [compound 38, 4-((4-(6-(bis(4-chlorophenyl)methyl)quinazolin-4-ylamino)piperidin-1-yl)methyl)benzamide], the EC50 is 191 nM in experiment [1] and 3570 nM in experiment [2].
As for `O=S(=O)(c1ccc(F)cc1)N1CCC(Nc2ncnc3ccc(C(c4ccc(Cl)cc4)c4ccc(Cl)cc4)cc23)CC1` [compound 121, 6-(bis(4-chlorophenyl)methyl)-N-(1-(4-fluorophenylsulfonyl)piperidin-4-yl)quinazolin-4-amine], the EC50 worked out at 3 nM in experiment [1] and 2140 nM in experiment [2].
For `COc1nc(NC2CCN(S(=O)(=O)C(F)(F)F)CC2)c2cc(C(c3ccc(Cl)cc3)c3ccc(Cl)cc3)ccc2n1` [Compound #103, 6-(bis(4-chlorophenyl)methyl)-2-methoxy-N-(1-((trifluoromethyl)sulfonyl)piperidin-4-yl)quinazolin-4-amine] the same measures were 4 nM and > 10000 nM.
For `NC(=O)c1ccc(CNc2ncnc3ccc(C(c4ccc(Cl)cc4)c4ccc(Cl)cc4)cc23)cc1` [compound 56, 4-((6-(bis(4-chlorophenyl)methyl)quinazolin-4-ylamino)methyl)benzamide] the same measures were 446 nM and 9100 nM.
Taken in the same sequence, the figures for `OCCCCOc1nc(NCc2ccc(C(F)(F)F)cc2)c2cc(C(c3ccc(Cl)cc3)c3ccc(Cl)cc3)ccc2n1` [Compound #71, 4-((6-(bis(4-chlorophenyl)methyl)-4-((4-(trifluoromethyl)benzyl)amino)quinazolin-2-yl)oxy)butan-1-ol] were 19 nM and > 10000 nM.
As to `O=C(O)CC(=O)N1CCC(Nc2ncnc3ccc(C(c4ccc(Cl)cc4)c4ccc(Cl)cc4)cc23)CC1` [compound 88, 3-(4-(6-(bis(4-chlorophenyl)methyl)quinazolin-4-ylamino)piperidin-1-yl)-3-oxopropanoic acid], the EC50 was 799 nM in experiment [1] and > 10000 nM in experiment [2].
With `O=C(O)c1ccccc1CN1CCC(Nc2ncnc3ccc(C(c4ccc(Cl)cc4)c4ccc(Cl)cc4)cc23)CC1` [compound 21, 2-((4-(6-(bis(4-chlorophenyl)methyl)quinazolin-4-ylamino)piperidin-1-yl)methyl)benzoic acid], the EC50 is 4820 nM in experiment [1] and 4710 nM in experiment [2].
Taken in the same sequence, the figures for `CC(Nc1ncnc2ccc(C(c3ccc(Cl)cc3)c3ccc(Cl)cc3)cc12)c1cccc(C(F)(F)F)c1` (stereo not drawn) [compound 128, 6-(bis(4-chlorophenyl)methyl)-N-(1-(3-(trifluoromethyl)phenyl)ethyl)quinazolin-4-amine] were 9 nM and 10400 nM.

Source of the values: patent publication US9682955B2, “Quinazoline derivatives useful as CB-1 inverse agonists” (Janssen Pharmaceutica NV, priority 2014, dated 2017).
